Reference: US20110212968A1, “PHENETHYLAMIDE DERIVATIVES AND THEIR HETEROCYCLIC ANALOGUES” (priority 2008, published 2011)
pIC50: −log10 of the molar value.

What was measured:
human orexin-1 receptor = target: T1, human orexin-1 receptor (Homo sapiens, UniProt O43613); assay: Intracellular calcium measurement (FLIPR Tetra), orexin receptor antagonistic activity, OX1; assay type: cell-based; conditions: CHO cells expressing human orexin-1 receptor, 3 nM orexin-A, conditions B, normalized (*) using IC50 of on-plate reference compound
T1 construct: expressed in transfected cells; host or cells: CHO (Chinese hamster ovary) cells, kept under G418 selection
T1 sequence (O43613 1-425): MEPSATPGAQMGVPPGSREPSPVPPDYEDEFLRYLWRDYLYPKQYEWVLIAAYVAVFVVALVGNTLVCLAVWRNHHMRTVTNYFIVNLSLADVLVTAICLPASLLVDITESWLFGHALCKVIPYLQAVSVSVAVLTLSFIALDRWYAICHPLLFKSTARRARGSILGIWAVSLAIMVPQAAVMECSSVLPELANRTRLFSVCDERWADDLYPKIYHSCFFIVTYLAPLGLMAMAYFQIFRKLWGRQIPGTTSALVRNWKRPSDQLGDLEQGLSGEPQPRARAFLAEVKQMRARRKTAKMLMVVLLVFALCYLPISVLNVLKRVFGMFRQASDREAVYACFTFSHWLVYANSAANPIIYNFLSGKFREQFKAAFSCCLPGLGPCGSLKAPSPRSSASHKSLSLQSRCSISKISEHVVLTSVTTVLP
Summary of the method: (§1)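 Recombinant CHO cells expressing human OX1 or OX2, loaded with fluo-4 AM plus probenecid, were preincubated with antagonist 10 min, then stimulated with 3 nM human orexin-A. Peak fluorescence was compared with vehicle; IC50 derived, sometimes normalized to an on-plate reference compound; two pipetting/cell-splitting conditions were used.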

human orexin-2 receptor = target: T2, human orexin-2 receptor (Homo sapiens, UniProt O43614); assay: Intracellular calcium measurement (FLIPR Tetra), orexin receptor antagonistic activity, OX2; assay type: cell-based; conditions: CHO cells expressing human orexin-2 receptor, 3 nM orexin-A, conditions B, normalized (*) using IC50 of on-plate reference compound
T2 construct: expressed in transfected cells; host or cells: CHO (Chinese hamster ovary) cells, kept under G418 selection
T2 sequence (O43614 1-444): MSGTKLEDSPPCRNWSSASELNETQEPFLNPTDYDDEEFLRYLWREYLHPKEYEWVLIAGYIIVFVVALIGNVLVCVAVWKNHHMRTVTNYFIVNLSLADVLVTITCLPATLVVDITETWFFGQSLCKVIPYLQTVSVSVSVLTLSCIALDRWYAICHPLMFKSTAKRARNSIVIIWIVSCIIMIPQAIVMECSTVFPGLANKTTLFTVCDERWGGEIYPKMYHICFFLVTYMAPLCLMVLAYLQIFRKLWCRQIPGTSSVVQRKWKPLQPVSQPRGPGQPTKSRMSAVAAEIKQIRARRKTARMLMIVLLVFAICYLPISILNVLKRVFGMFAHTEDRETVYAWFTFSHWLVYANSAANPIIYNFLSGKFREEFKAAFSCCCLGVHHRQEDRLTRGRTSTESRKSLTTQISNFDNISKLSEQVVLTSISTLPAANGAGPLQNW
Summary of the method: as §1

Cc1ccc(-c2nccnc2C(=O)N(CCc2c[nH]c3ccc(F)cc23)CC(F)F)cc1C [Example 297, 3-(3,4-Dimethyl-phenyl)-pyrazine-2-carboxylic acid (2,2-difluoro-ethyl)-[2-(5-fluoro-1H-indol-3-yl)-ethyl]-amide]
pIC50 (human orexin-1 receptor): 6.15 | pIC50 (human orexin-2 receptor): 6.87

COc1ccc(-c2sc(C)nc2C(=O)N(CCc2c[nH]c3ccc(F)cc23)CC(=O)N(C)C)cn1 [Example 303, 5-(6-Methoxy-pyridin-3-yl)-2-methyl-thiazole-4-carboxylic acid dimethylcarbamoylmethyl-[2-(5-fluoro-1H-indol-3-yl)-ethyl]-amide]
pIC50 (human orexin-1 receptor): 5.63 | pIC50 (human orexin-2 receptor): 6.26

COc1ccc(-c2sc(C)nc2C(=O)N(CCc2c[nH]c3ccc(F)cc23)CC(F)F)cn1 [Example 307, 5-(6-Methoxy-pyridin-3-yl)-2-methyl-thiazole-4-carboxylic acid (2,2-difluoro-ethyl)-[2-(5-fluoro-1H-indol-3-yl)-ethyl]-amide]
pIC50 (human orexin-1 receptor): 6.46 | pIC50 (human orexin-2 receptor): 7.70

COc1ccc(-c2sc(C)nc2C(=O)N(CCO)CCc2c[nH]c3ccc(F)cc23)cn1 [Example 308, 5-(6-Methoxy-pyridin-3-yl)-2-methyl-thiazole-4-carboxylic acid [2-(5-fluoro-1H-indol-3-yl)-ethyl]-(2-hydroxy-ethyl)-amide]
pIC50 (human orexin-1 receptor): 6.45 | pIC50 (human orexin-2 receptor): 7.60

CCCN(CCc1c[nH]c2ccc(F)cc12)C(=O)c1ncccc1-c1ccc(OC)nc1 [Example 311]
pIC50 (human orexin-1 receptor): 6.83 | pIC50 (human orexin-2 receptor): 7.80

COc1ccc(-c2cccnc2C(=O)N(CCc2c[nH]c3ccc(F)cc23)CC(F)(F)F)cn1 [Example 312]
pIC50 (human orexin-1 receptor): 6.46 | pIC50 (human orexin-2 receptor): 7.12

COc1ccc(-c2cccnc2C(=O)N(CCc2c[nH]c3ccc(F)cc23)CC(N)=O)cn1 [Example 313, 6′-Methoxy-[3,3′]bipyridinyl-2-carboxylic acid carbamoylmethyl-[2-(5-fluoro-1H-indol-3-yl)-ethyl]-amide]
pIC50 (human orexin-1 receptor): 5.28 | pIC50 (human orexin-2 receptor): 6.28

COC(=O)CN(CCc1c[nH]c2ccc(F)cc12)C(=O)c1ncccc1-c1ccc(OC)nc1 [Example 315]
pIC50 (human orexin-1 receptor): 6.07 | pIC50 (human orexin-2 receptor): 6.94

COc1ccc(-c2cccnc2C(=O)N(CCc2c[nH]c3ccc(F)cc23)CC(F)F)cn1 [Example 317, 6′-Methoxy-[3,3′]bipyridinyl-2-carboxylic acid (2,2-difluoro-ethyl)-[2-(5-fluoro-1H-indol-3-yl)-ethyl]-amide]
pIC50 (human orexin-1 receptor): 6.12 | pIC50 (human orexin-2 receptor): 6.79

COc1ccc(-c2cccnc2C(=O)N(CCO)CCc2c[nH]c3ccc(F)cc23)cn1 [Example 318, 6′-Methoxy-[3,3′]bipyridinyl-2-carboxylic acid [2-(5-fluoro-1H-indol-3-yl)-ethyl]-(2-hydroxy-ethyl)-amide]
pIC50 (human orexin-1 receptor): < 5.27 | pIC50 (human orexin-2 receptor): 6.07

COc1ccc2[nH]cc(CCN(CC3CC3)C(=O)c3nccnc3-c3ccccc3)c2c1 [Example 322, 3-Phenyl-pyrazine-2-carboxylic acid cyclopropylmethyl-[2-(5-methoxy-1H-indol-3-yl)-ethyl]-amide]
pIC50 (human orexin-1 receptor): 6.72 | pIC50 (human orexin-2 receptor): 7.62

Cc1ccc2[nH]cc(CCN(CC3CC3)C(=O)c3nccnc3-c3ccccc3)c2c1 [Example 324, 3-Phenyl-pyrazine-2-carboxylic acid cyclopropylmethyl-[2-(5-methyl-1H-indol-3-yl)-ethyl]-amide]
pIC50 (human orexin-1 receptor): 7.11 | pIC50 (human orexin-2 receptor): 8.10

Cc1cccc2c(CCN(CC3CC3)C(=O)c3nccnc3-c3ccccc3)c[nH]c12 [Example 326, 3-Phenyl-pyrazine-2-carboxylic acid cyclopropylmethyl-[2-(7-methyl-1H-indol-3-yl)-ethyl]-amide]
pIC50 (human orexin-1 receptor): 7.12 | pIC50 (human orexin-2 receptor): 8.10

Cc1ccc(-c2nccnc2C(=O)N(CCc2cn(C)c3ccccc23)CC2CC2)cc1C [Example 330, 3-(3,4-Dimethyl-phenyl)-pyrazine-2-carboxylic acid cyclopropylmethyl-[2-(1-methyl-1H-indol-3-yl)-ethyl]-amide]
pIC50 (human orexin-1 receptor): 7.74 | pIC50 (human orexin-2 receptor): 8.10
